Earlier results, collected in patent US12691099B2, “Oral formulations of Edaravone and method of manufacturing thereof” (BDR PHARMACEUTICALS INTERNATIONAL PRIVATE LIMITED, priority 2019, dated 2026).
In brackets after ≈: the same amount, converted by molar mass.

Assays:
[1] = poor solubility in water and lower lipid permeability

## CC1=NN(c2ccccc2)C(=O)C1 [Edaravone, 3-methyl-1-phenyl-2-pyrazolin-5-one]
other
  solubility: 0.025 mg/mL (≈ 144 µM)
[1]
  BCS class: Class IV
